In patent US10351547B2, “Somatostatin modulators and uses thereof” (priority 2016, dated 2019) one finds EC50 data, which are given here for 25 compounds.

For this test, the target named is human SSTR2 (Homo sapiens (Human), UniProt P30874). Description: Human SSTR2 intracellular cAMP functional assay for agonists (HTRF). In kind it is cell-based. The note with it: CHO-K1 cells stably expressing human SSTR2; NKH477-stimulated cAMP; read-out: EC50 (inhibition of cAMP activities via human SST2R). In a few lines:
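Cells bearing human SSTR2 exposed to compound for 20 minutes at 37 °C; after lysis, cAMP measured by time-resolved fluorescence (HTRF) and converted via a standard curve. EC50 calculated from cAMP versus compound concentration.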

Bounds are passed on as bounds.

Sequence of human SSTR2 (P30874 whole entry): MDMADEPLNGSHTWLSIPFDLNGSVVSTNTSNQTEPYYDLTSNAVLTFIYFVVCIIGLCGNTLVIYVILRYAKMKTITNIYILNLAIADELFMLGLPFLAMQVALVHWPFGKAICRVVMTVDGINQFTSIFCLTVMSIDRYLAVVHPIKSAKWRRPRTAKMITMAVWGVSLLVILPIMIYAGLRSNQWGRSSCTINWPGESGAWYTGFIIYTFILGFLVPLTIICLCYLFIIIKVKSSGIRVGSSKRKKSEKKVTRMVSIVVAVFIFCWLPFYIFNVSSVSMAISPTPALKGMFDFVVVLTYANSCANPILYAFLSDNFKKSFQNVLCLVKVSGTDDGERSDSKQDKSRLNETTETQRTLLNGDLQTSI

With `Cc1cc(F)cc(-c2cnc3ccc(-c4cc(F)cnc4N)cc3c2N2CCC(N)CC2)c1` [2-178, 3-[4-(4-aminopiperidin-1-yl)-3-(3-fluoro-5-methylphenyl)quinolin-6-yl]-5-fluoropyridin-2-amine], the EC50 is < 0.01 µM. Consider `N#Cc1cc(F)c(F)c(-c2ccc3ncc(-c4cc(F)cc(F)c4)c(N4CCC(N)CC4)c3c2)c1N` [2-179, 2-amino-3-[4-(4-aminopiperidin-1-yl)-3-(3,5-difluorophenyl)quinolin-6-yl]-4,5-difluorobenzonitrile], for which the EC50 is < 0.01 µM. On to `COC(=O)Nc1c(C#N)cc(F)c(F)c1-c1ccc2ncc(-c3cc(F)cc(F)c3)c(N3CCC(N)CC3)c2c1` [2-180, methyl N-{2-[4-(4-aminopiperidin-1-yl)-3-(3,5-difluorophenyl)quinolin-6-yl]-6-cyano-3,4-difluorophenyl}carbamate], for which the EC50 was < 0.01 µM.

Consider `Cc1cc(F)cc(-c2cnc3ccc(-c4cncc(Cl)c4N)cc3c2N2CCC(N)CC2)c1` [2-181, 3-[4-(4-aminopiperidin-1-yl)-3-(3-fluoro-5-methylphenyl)quinolin-6-yl]-5-chloropyridin-4-amine], for which the EC50 was < 0.01 µM. In the case of `CONC(=O)Nc1ncc(F)cc1-c1ccc2ncc(-c3cc(C)cc(F)c3)c(N3CCC(N)CC3)c2c1` [2-183, 1-{3-[4-(4-aminopiperidin-1-yl)-3-(3-fluoro-5-methylphenyl)quinolin-6-yl]-5-fluoropyridin-2-yl}-3-methoxyurea] it was < 0.01 µM; in that of `COC(=O)Nc1c(Cl)cncc1-c1ccc2ncc(-c3cc(C)cc(F)c3)c(N3CCC(N)CC3)c2c1` [2-184, methyl N-{3-[4-(4-aminopiperidin-1-yl)-3-(3-fluoro-5-methylphenyl)quinolin-6-yl]-5-chloropyridin-4-yl}carbamate], < 0.01 µM; in that of `COC(=O)Nc1ccc(C#N)cc1-c1ccc2ncc(-c3cc(F)cc(F)c3)c(N3CCC(N)CC3)c2c1` [2-185], < 0.01 µM. Consider `CONC(=O)Nc1c(Cl)cncc1-c1ccc2ncc(-c3cc(C)cc(F)c3)c(N3CCC(N)CC3)c2c1` [2-186, 1-{3-[4-(4-aminopiperidin-1-yl)-3-(3-fluoro-5-methylphenyl)quinolin-6-yl]-5-chloropyridin-4-yl}-3-methoxyurea], for which the EC50 is < 0.01 µM. The result for `Cc1cc(F)cc(-c2cnc3ccc(-c4cncc(C#N)c4N)cc3c2N2CCC(N)CC2)c1` [2-187, 4-amino-5-[4-(4-aminopiperidin-1-yl)-3-(3-fluoro-5-methylphenyl)quinolin-6-yl]pyridine-3-carbonitrile] reads < 0.01 µM. The result for `Cn1ncc(-c2ccc3ncc(-c4cc(F)cc(F)c4)c(N4CCC(N)CC4)c3c2)c1C=NO` [2-188, 1-[3-(3,5-difluorophenyl)-6-{5-[(hydroxyimino)methyl]-1-methyl-1H-pyrazol-4-yl}quinolin-4-yl]piperidin-4-amine] reads < 0.01 µM; that for `CONC(=O)Nc1ccc(C#N)cc1-c1ccc2ncc(-c3cc(F)cc(F)c3)c(N3CCC(N)CC3)c2c1` [2-189, 1-{2-[4-(4-aminopiperidin-1-yl)-3-(3,5-difluorophenyl)quinolin-6-yl]-4-cyanophenyl}-3-methoxyurea], < 0.01 µM.

Regarding `CON(C)C(=O)Nc1c(C#N)cc(F)c(F)c1-c1ccc2ncc(-c3cc(F)cc(F)c3)c(N3CCC(N)CC3)c2c1` [2-191, 1-{2-[4-(4-aminopiperidin-1-yl)-3-(3,5-difluorophenyl)quinolin-6-yl]-6-cyano-3,4-difluorophenyl}-3-methoxy-3-methylurea], the EC50 was < 0.01 µM. In the case of `NC1CCN(c2c(-c3cc(F)cc(F)c3)cnc3ccc(-c4cncc(Cl)c4C=NO)cc23)CC1` [2-192, 1-(6-{5-chloro-4-[(hydroxyimino)methyl]pyridin-3-yl}-3-(3,5-difluorophenyl)quinolin-4-yl)piperidin-4-amine] it was < 0.01 µM; in that of `COCOc1c(C#N)cc(F)cc1-c1ccc2ncc(-c3cc(F)cc(F)c3)c(N3CCC(N)CC3)c2c1` [2-194, 3-[4-(4-aminopiperidin-1-yl)-3-(3,5-difluorophenyl)quinolin-6-yl]-5-fluoro-2-(methoxymethoxy)benzonitrile], < 0.01 µM; in that of `NC1CCN(c2c(-c3cc(F)cc(F)c3)cnc3ccc(-c4ncccc4C=NO)cc23)CC1` [2-195, 1-[3-(3,5-difluorophenyl)-6-{3-[(hydroxyimino)methyl]pyridin-2-yl}quinolin-4-yl]piperidin-4-amine], < 0.01 µM. Turning to `NC1CCN(c2c(-c3cc(F)cc(F)c3)cnc3ccc(-c4cccnc4C=NO)cc23)CC1` [2-196, 1-[3-(3,5-difluorophenyl)-6-{2-[(hydroxyimino)methyl]pyridin-3-yl}quinolin-4-yl]piperidin-4-amine], the EC50 was < 0.01 µM. On to `COC(=O)Nc1c(F)cc(F)cc1-c1ccc2ncc(-c3cc(C)cc(F)c3)c(N3CCC(N)CC3)c2c1` [2-197, methyl N-{2-[4-(4-aminopiperidin-1-yl)-3-(3-fluoro-5-methylphenyl)quinolin-6-yl]-4,6-difluorophenyl}carbamate], for which the EC50 was < 0.01 µM. In the case of `CON(C)C(=O)Nc1c(F)cc(F)cc1-c1ccc2ncc(-c3cc(C)cc(F)c3)c(N3CCC(N)CC3)c2c1` [2-198, 1-{2-[4-(4-aminopiperidin-1-yl)-3-(3-fluoro-5-methylphenyl)quinolin-6-yl]-4,6-difluorophenyl}-3-methoxy-3-methylurea] it was < 0.01 µM. The result for `Cc1cc(F)cc(-c2cnc3ccc(-c4cc(F)cc(F)c4NC(=O)N(C)C)cc3c2N2CCC(N)CC2)c1` [2-199, 1-{2-[4-(4-aminopiperidin-1-yl)-3-(3-fluoro-5-methylphenyl)quinolin-6-yl]-4,6-difluorophenyl}-3,3-dimethylurea] reads < 0.01 µM.

Take `NC1CCN(c2c(-c3cc(F)cc(F)c3)cnc3ccc(-c4cccc(C=NO)n4)cc23)CC1` [2-200, 1-[3-(3,5-difluorophenyl)-6-{6-[(hydroxyimino)methyl]pyridin-2-yl}quinolin-4-yl]piperidin-4-amine]: the EC50 was < 0.01 µM. With `Cc1ccc(F)c(C=NO)c1-c1ccc2ncc(-c3cc(F)cc(F)c3)c(N3CCC(N)CC3)c2c1` [2-202, 1-[3-(3,5-difluorophenyl)-6-{3-fluoro-2-[(hydroxyimino)methyl]-6-methylphenyl}quinolin-4-yl]piperidin-4-amine], the EC50 was < 0.01 µM. With `NC1CCN(c2c(-c3cc(F)cc(F)c3)cnc3ccc(-c4ccnc(C=NO)c4)cc23)CC1` [2-203, 1-[3-(3,5-difluorophenyl)-6-{2-[(hydroxyimino)methyl]pyridin-4-yl}quinolin-4-yl]piperidin-4-amine], the EC50 was < 0.01 µM. The result for `COCCOc1c(C#N)cc(F)cc1-c1ccc2ncc(-c3cc(C)cc(F)c3)c(N3CCC(N)CC3)c2c1` [2-204, 3-[4-(4-aminopiperidin-1-yl)-3-(3-fluoro-5-methylphenyl)quinolin-6-yl]-5-fluoro-2-(2-methoxyethoxy)benzonitrile] reads < 0.01 µM. In the case of `COC(=O)Nc1c(C#N)cc(F)c(F)c1-c1ccc2ncc(-c3cc(C)cc(F)c3)c(N3CCC(N)CC3)c2c1` [2-205] it was < 0.01 µM; in that of `CON(C)C(=O)Nc1c(C#N)cc(F)c(F)c1-c1ccc2ncc(-c3cc(C)cc(F)c3)c(N3CCC(N)CC3)c2c1` [2-206, 1-{2-[4-(4-aminopiperidin-1-yl)-3-(3-fluoro-5-methylphenyl)quinolin-6-yl]-6-cyano-3,4-difluorophenyl}-3-methoxy-3-methylurea], < 0.01 µM.
